# The source made the active and inactive calls. The rule behind the calls is not given here. Peptide text beside a SMILES is read from it.
# Assays:
# HepG2 [1] = assay: Antiproliferative activity against human HepG2 cells under 10 J/cm2 light irradiation at 660 nm by CCK8 assay; type: functional, cell-based; conditions: HepG2, light or radiation study
# Huh-7 [2] = assay: Antiproliferative activity against human Huh-7 cells under dark condition by CCK8 assay; type: functional, cell-based
# Huh-7 [3] = assay: Antiproliferative activity against human Huh-7 cells under 10 J/cm2 light irradiation at 660 nm by CCK8 assay; type: functional, cell-based; conditions: Huh-7, light or radiation study
# MCF7 [4] = assay: Antiproliferative activity against human MCF7 cells under dark condition by CCK8 assay; type: functional, cell-based
# MCF7 [5] = assay: Antiproliferative activity against human MCF7 cells under 10 J/cm2 light irradiation at 660 nm by CCK8 assay; type: functional, cell-based; conditions: MCF7, light or radiation study
# HeLa = assay: Antiproliferative activity against human HeLa cells under 10 J/cm2 light irradiation at 660 nm by CCK8 assay; type: functional, cell-based; conditions: light or radiation study
# [6] = Antiproliferative activity against human HUVEC cells under dark condition by CCK8 assay; type: toxicity, cell-based
# [7] = Antiproliferative activity against human HUVEC cells under 10 J/cm2 light irradiation at 660 nm by CCK8 assay; type: toxicity, cell-based
# Glypican-3 = Glypican-3 (Homo sapiens, UniProt P51654); assay: Binding affinity to GPC3 (unknown origin) assessed as dissociation constant by fluorescence polarization assay
# Glypican-3, sequence (P51654 25-358 limits assumed): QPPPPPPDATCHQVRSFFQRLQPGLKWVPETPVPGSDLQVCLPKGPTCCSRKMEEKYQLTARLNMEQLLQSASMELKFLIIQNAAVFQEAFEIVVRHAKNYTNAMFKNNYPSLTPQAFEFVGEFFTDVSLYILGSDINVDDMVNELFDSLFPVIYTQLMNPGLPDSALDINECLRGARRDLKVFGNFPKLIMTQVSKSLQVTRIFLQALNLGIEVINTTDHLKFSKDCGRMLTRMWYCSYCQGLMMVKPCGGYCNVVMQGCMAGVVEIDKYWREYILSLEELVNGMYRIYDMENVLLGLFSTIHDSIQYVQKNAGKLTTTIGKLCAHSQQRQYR
# Glypican-3, sequence (P51654 359-554 limits assumed): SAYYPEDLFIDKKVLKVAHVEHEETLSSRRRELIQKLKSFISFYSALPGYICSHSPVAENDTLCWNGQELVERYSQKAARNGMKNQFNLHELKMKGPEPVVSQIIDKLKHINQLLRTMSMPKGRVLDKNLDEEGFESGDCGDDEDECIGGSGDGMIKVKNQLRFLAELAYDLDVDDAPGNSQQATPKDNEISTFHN
# [8] = Photostability of compound under 250 mW/cm2 light irradiation at 660 nm incubated for 10 mins by UV spectrophotometry; type: physicochemical; conditions: 0.66 µM
# [9] = Drug uptake in human MCF7 cells incubated for 2 hrs by fluorescence based assay; type: ADME, cell-based; conditions: mcf7, 2 h
# [10] = Drug uptake in human HUVEC cells at 500 nM incubated for 0.5 hrs by flow cytometry; type: ADME, cell-based; conditions: 0.5 µM
# [11] = Drug uptake in human HepG2 cells at 500 nM incubated for 2 hrs by flow cytometry; type: ADME, cell-based; conditions: hepg2, 2 h, 0.5 µM
# [12] = Drug uptake in human MCF7 cells at 10 uM incubated for 4 hrs by confocal microscopy; type: ADME, cell-based; conditions: mcf7, 4 h
# HepG2 [13] = assay: Induction of ROS generation in human HepG2 cells at 10 uM incubated for 24 hrs by DCFH-DA probe based flow cytometry; type: functional, cell-based
# HepG2 [14] = assay: Induction of ROS generation in human HepG2 cells at 10 uM preincubated for 24 hrs followed by DCFH-DA probe addition and further incubated under dark condition for 20 mins prior and 20 mins post- light irradiation of 10 J/cm2 at 660 nm by flow cytometry; type: functional, cell-based; conditions: time 24.66 hrs
# HepG2 [15] = assay: Induction of apoptosis in human HepG2 cells assessed as early apoptotic cells at 2.5 uM incubated for 24 hrs followed by 10 J/cm2 of light irradiation at 660 nm measured after 24 hrs by Annexin V-FITC/PI staining based flow cytometry relative to control; type: functional; conditions: time 48 hrs
# HepG2 [16] = assay: Induction of apoptosis in human HepG2 cells assessed as necrotic cells under dark condition at 2.5 uM incubated for 24 hrs by Annexin V-FITC/PI staining based flow cytometry relative to control; type: functional
# HepG2 [17] = assay: Induction of apoptosis in human HepG2 cells assessed as late apoptotic cells at 5 uM incubated for 24 hrs followed by 10 J/cm2 of light irradiation at 660 nm measured after 24 hrs by Annexin V-FITC/PI staining based flow cytometry relative to control; type: functional; conditions: time 48 hrs
# HepG2 [18] = assay: Induction of apoptosis in human HepG2 cells assessed as early apoptotic cells under dark condition at 5 uM incubated for 24 hrs by Annexin V-FITC/PI staining based flow cytometry relative to control; type: functional
# HepG2 [19] = assay: Induction of cell cycle arrest at S phase in human HepG2 cells at 1 uM by flow cytometry relative to control; type: functional
# Huh-7 [20] = assay: Induction of cell cycle arrest at S phase in human Huh-7 cells at 1 uM under 10 J/cm2 light irradiation at 660 nm by flow cytometry; type: functional, cell-based
# [21] = Drug distribution in spleen of BALB/C nude mouse model xenografted with human HepG2 cells at 1 to 2 uM/kg, iv measured for 1 to 4 hrs by fluorescence imaging analysis; type: ADME, organism-based; conditions: in vivo, dose lower 1 µM/Kg, time lower 1 hrs, dose upper 2 µM/Kg, time upper 4 hrs
# [22] = Drug distribution in BALB/C nude mouse model xenografted with human HepG2 cells at 1 to 2 uM/kg, iv measured after 1 hr by fluorescence imaging analysis; type: ADME, organism-based; conditions: in vivo, dose 1-2 µM/Kg
# [23] = Toxicity in BALB/C nude mouse model xenografted with human HepG2 cells assessed as change in liver weight at 1 to 2 uM/kg, iv administered every two days for 21 days along with 250 mW/cm2 light irradiation at 660 nm for 10 mins at 1 hr post-compound administration; type: organism-based; conditions: in vivo, 505.17 h, dose 1-2 µM/Kg, time 505.166 hrs
# [24] = Toxicity in BALB/C nude mouse model xenografted with human HepG2 cells assessed as change in spleen weight at 1 to 2 uM/kg, iv administered every two days for 21 days along with 250 mW/cm2 light irradiation at 660 nm for 10 mins at 1 hr post-compound administration; type: organism-based; conditions: in vivo, 505.17 h, dose 1-2 µM/Kg, time 505.166 hrs
# [25] = Toxicity in BALB/C nude mouse model xenografted with human HepG2 cells assessed as change in lung weight at 1 to 2 uM/kg, iv administered every two days for 21 days along with 250 mW/cm2 light irradiation at 660 nm for 10 mins at 1 hr post-compound administration; type: organism-based; conditions: in vivo, 505.17 h, dose 1-2 µM/Kg, time 505.166 hrs
# [26] = Toxicity in BALB/C nude mouse model xenografted with human HepG2 cells assessed as change in kidney weight at 1 to 2 uM/kg, iv administered every two days for 21 days along with 250 mW/cm2 light irradiation at 660 nm for 10 mins at 1 hr post-compound administration; type: organism-based; conditions: in vivo, 505.17 h, dose 1-2 µM/Kg, time 505.166 hrs
# [27] = Toxicity in BALB/C nude mouse model xenografted with human HepG2 cells assessed as damage in liver at 1 to 2 uM/kg, iv administered every two days for 21 days along with 250 mW/cm2 light irradiation at 660 nm for 10 mins at 1 hr post-compound administration by H and E staining based analysis; type: organism-based; conditions: in vivo, 505.17 h, dose 1-2 µM/Kg, time 505.166 hrs
# [28] = Toxicity in BALB/C nude mouse model xenografted with human HepG2 cells assessed as damage in spleen at 1 to 2 uM/kg, iv administered every two days for 21 days along with 250 mW/cm2 light irradiation at 660 nm for 10 mins at 1 hr post-compound administration by H and E staining based analysis; type: organism-based; conditions: in vivo, 505.17 h, dose 1-2 µM/Kg, time 505.166 hrs
# [29] = Toxicity in BALB/C nude mouse model xenografted with human HepG2 cells assessed as damage in lung at 1 to 2 uM/kg, iv administered every two days for 21 days along with 250 mW/cm2 light irradiation at 660 nm for 10 mins at 1 hr post-compound administration by H and E staining based analysis; type: organism-based; conditions: in vivo, 505.17 h, dose 1-2 µM/Kg, time 505.166 hrs
# [30] = Toxicity in BALB/C nude mouse model xenografted with human HepG2 cells assessed as damage in kidney at 1 to 2 uM/kg, iv administered every two days for 21 days along with 250 mW/cm2 light irradiation at 660 nm for 10 mins at 1 hr post-compound administration by H and E staining based analysis; type: organism-based; conditions: in vivo, 505.17 h, dose 1-2 µM/Kg, time 505.166 hrs
structure (smiles),measurement,setting,value
C=Cc1c(C)c2cc3nc(c(CC(=O)O)c4[nH]c(cc5nc(cc1[nH]2)C(C)=C5CC)c(C)c4C(=O)NCCCC(=O)N[C@@H](CC(=O)O)C(=O)N[C@@H](Cc1cnc[nH]1)C(=O)N[C@@H](CC(C)C)C(=O)N[C@@H](C)C(=O)N[C@@H](CO)C(=O)N[C@@H](CC(C)C)C(=O)N[C@@H](Cc1c[nH]c2ccccc12)C(=O)N[C@@H](Cc1c[nH]c2ccccc12)C(=O)NCC(=O)N[C@H](C(=O)N[C@@H](CCC(=O)O)C(=O)N[C@@H](CC(C)C)C(=O)O)[C@@H](C)O)[C@@H](CCC(=O)O)[C@@H]3C (HELM PEPTIDE1{[C=Cc1c(C)c2cc3nc(c(CC(=O)O)c4[nH]c(cc5nc(cc1[nH]2)C(C)=C5CC)c(C)c4C(=O)[*:2])[C@@H](CCC(=O)O)[C@@H]3C].[O=C(CCCN[*:1])[*:2]].D.H.L.A.S.L.W.W.G.T.E.L}$$$$V2.0),IC50,HepG2 [1],0.82 µM
same,IC50,Huh-7 [2],> 100 µM
same,IC50,Huh-7 [3],2.4 µM
same,IC50,MCF7 [4],> 100 µM
same,IC50,MCF7 [5],> 10 µM
same,IC50,HeLa,> 10 µM
same,IC50,[6],> 200 µM
same,IC50,[7],> 10 µM
same,Kd,Glypican-3,0.38 µM
same,Stability,[8],Stable
same,Drug uptake,[9],Not Active
same,Drug uptake,[10],Not Active
same,Drug uptake,[11],Dose-Dependent Effect
same,Drug uptake,[12],Not Active
same,Activity,HepG2 [13],inactive
same,Activity,HepG2 [14],Active
same,Activity,HepG2 [15],0.1%
same,Activity,HepG2 [16],0.2%
same,Activity,HepG2 [17],9.3%
same,Activity,HepG2 [18],2.3%
same,Activity,HepG2 [19],21.8%
same,Activity,Huh-7 [20],Active
same,Drug uptake,[21],Not Active
same,Drug uptake,[22],Active
same,Activity,[23],Non-Toxic
same,Activity,[24],Non-Toxic
same,Activity,[25],Non-Toxic
same,Activity,[26],Non-Toxic
same,Activity,[27],Non-Toxic
same,Activity,[28],Non-Toxic
same,Activity,[29],Non-Toxic
same,Activity,[30],Non-Toxic

# — ChEMBL document CHEMBL5537154, “Smart glypican-3-targeting peptide-chlorin e6 conjugates for targeted photodynamic therapy of hepatocellular carcinoma” (Eur J Med Chem, 2024)
